Assay results published in patent EP0315197B1 (GÖDECKE AKTIENGESELLSCHAFT, priority 1987, dated 1989).
Where a name gives a salt, the structure may show the parent alone. Read-outs that look alike come from different tables or passages of the source.

Tests used:
[1] = Kölle 1983; cited from earlier work
Hypertonie [2] = conditions: for Response-Rate / Senkung des mittleren systolischen Blutdrucks im Sitzen: 8 weeks; for Senkung des diastolischen Blutdrucks im Sitzen: after 8 weeks vs placebo phase, morning pre-dose, mean; for DBD sitzend / DBD stehend / HR sitzend / HR stehend / SBD sitzend / SBD stehend: mean (SD)
Description: In diese multizentrische randomisierte Doppelblind-Parallel-Studie wurden wiederum Hypertoniker der WHO-Klasse I-III eingeschlossen, deren diastolischer Blutdruck am Ende der Placebophase höher als 95 mmHg war. Einer 2-wöchigen Placebophase folgte eine Behandlungsphase von 8 Wochen. Das Therapieschema von 1 x tgl. 180 mg bzw. 2 x tgl. 90 mg glich dem der vorangegangenen Studie. Zur Beurteilung der Wirksamkeit wurde die Senkung des diastolischen Blutdrucks bei der Messung am Morgen herangezogen, die jeweils nach 8 Wochen Behandlung erzielt worden war. Die Blutdruckmessung erfolgte wiederum vor der Medikation, um Aufschluß über die 24-h-Wirkung bei der einmal täglichen Behandlung zu erhalten.

Hypertonie [3] = conditions: for Senkung der Herzfrequenz / Senkung des systolischen Blutdrucks im Sitzen: 3 weeks; for Abnahme des diastolischen Blutdrucks: after 3 weeks vs end of placebo phase, depending on time of measurement; for Response-Rate zum Zeitpunkt 8 Uhr: pre-dose; for globale Response-Rate (Anteil der Patienten mit Response zu allen drei Meßzeitpunkten): response = diastolic decrease of at least 10 mmHg or below 90 mmHg; for DBD sitzend / DBD stehend / HR sitzend / SBD sitzend / SBD stehend / HR stehend: mean (SD)
Excerpt: Die Patienten befanden sich stationär in Reha-Kliniken.
Nach Absetzen einer eventuellen antihypertensiven Vorbehandlung erhielten die Patienten zunächst 1 Woche Placebo.
Zur Beurteilung der Wirksamkeit wurde der diastolische Blutdruck im Sitzen zu 3 verschiedenen Tageszeiten (8, 11 und 17 Uhr) herangezogen. "Response" war definiert als eine Senkung des diastolischen Blutdrucks um mindestens 10 mmHg oder unter einen Wert von 90 mmHg.

[4] = 1 × 180 mg (n = 30), Basislinie (end of placebo phase)
[5] = 1 × 180 mg (n = 30), Endpunkt (8 weeks)
[6] = 2 × 90 mg (n = 30), Basislinie (end of placebo phase)
[7] = 2 × 90 mg (n = 30), Endpunkt (8 weeks)
[8] = 5 p.m., 1 × 180 mg (n = 40), Basislinie (end of placebo phase)
[9] = 5 p.m., 1 × 180 mg (n = 40), Endpunkt (3 weeks)
[10] = 5 p.m., 2 × 90 mg (n = 42), Basislinie (end of placebo phase)
[11] = 5 p.m., 2 × 90 mg (n = 42), Endpunkt (3 weeks)
[12] = 8 a.m., 1 × 180 mg (n = 40), Basislinie (end of placebo phase)
[13] = 8 a.m., 1 × 180 mg (n = 40), Endpunkt (3 weeks)
[14] = 8 a.m., 2 × 90 mg (n = 42), Basislinie (end of placebo phase)
[15] = 8 a.m., 2 × 90 mg (n = 42), Endpunkt (3 weeks)
[16] = 11 a.m., 1 × 180 mg (n = 40), Basislinie (end of placebo phase)
[17] = 11 a.m., 1 × 180 mg (n = 40), Endpunkt (3 weeks)
[18] = 11 a.m., 2 × 90 mg (n = 42), Basislinie (end of placebo phase)
[19] = 11 a.m., 2 × 90 mg (n = 42), Endpunkt (3 weeks)

For `COc1ccc([C@@H]2Sc3ccccc3N(CCN(C)C)C(=O)[C@@H]2OC(C)=O)cc1` [Diltiazem, Diltiazemhydrochlorid], the “Halbwertzeit für die Elimination, α-Phase” value [1] is given as 0,1 h, the “Halbwertzeit für die Elimination, β-Phase” value [1] is given as 2,1 h and the “Halbwertzeit für die Elimination, γ-Phase” value [1] is given as 9,8 h. For the same compound, the Response-Rate (Hypertonie [2]; 1 x 180 mg group) was 80%, the “Senkung des diastolischen Blutdrucks im Sitzen” value (Hypertonie [2]; 1 x 180 mg group) was 13 mmHg and the “Senkung des mittleren systolischen Blutdrucks im Sitzen” value (Hypertonie [2]; 1 x 180 mg) was 16 mmHg. For the same compound, the DBD sitzend (Hypertonie [2]; [4]) was 100.7 (3.0) mmHg, the DBD stehend (Hypertonie [2]; [4]) was 98.7 (3.2) mmHg and the HR sitzend (Hypertonie [2]; [4]) was 72.5 (4.9) 1/min. For the same compound, the HR stehend (Hypertonie [2]; [4]) was 74.9 (6.3) 1/min, the SBD sitzend (Hypertonie [2]; [4]) was 175.1 (16.6) mmHg and the SBD stehend (Hypertonie [2]; [4]) was 169.7 (19.8) mmHg. The DBD sitzend (Hypertonie [2]; [5]) was 87.8 (9.1) mmHg, the DBD stehend (Hypertonie [2]; [5]) was 84.8 (9.2) mmHg and the HR sitzend (Hypertonie [2]; [5]) was 68.7 (4.4) 1/min. For the same compound, the HR stehend (Hypertonie [2]; [5]) was 71.3 (5.2) 1/min, the SBD sitzend (Hypertonie [2]; [5]) was 159.0 (18.8) mmHg and the SBD stehend (Hypertonie [2]; [5]) was 150.5 (26.6) mmHg. The Response-Rate (Hypertonie [2]; 2 x 90 mg group) was 70%, the “Senkung des diastolischen Blutdrucks im Sitzen” value (Hypertonie [2]; 2 x 90 mg group) was 12 mmHg and the “Senkung des mittleren systolischen Blutdrucks im Sitzen” value (Hypertonie [2]; 2 x 90 mg) was 10 mmHg. The DBD sitzend (Hypertonie [2]; [6]) was 99.1 (3.2) mmHg, the DBD stehend (Hypertonie [2]; [6]) was 99.0 (3.1) mmHg and the HR sitzend (Hypertonie [2]; [6]) was 73.5 (6.5) 1/min. The HR stehend (Hypertonie [2]; [6]) was 75.9 (7.5) 1/min, the SBD sitzend (Hypertonie [2]; [6]) was 169.4 (19.7) mmHg and the SBD stehend (Hypertonie [2]; [6]) was 168.5 (22.1) mmHg. The DBD sitzend (Hypertonie [2]; [7]) was 88.4 (8.0) mmHg, the DBD stehend (Hypertonie [2]; [7]) was 86.9 (8.6) mmHg and the HR sitzend (Hypertonie [2]; [7]) was 69.8 (6.0) 1/min. The HR stehend (Hypertonie [2]; [7]) was 72.5 (7.0) 1/min, the SBD sitzend (Hypertonie [2]; [7]) was 159.2 (23.7) mmHg and the SBD stehend (Hypertonie [2]; [7]) was 156.7 (28.4) mmHg. For the same compound, the “Senkung der Herzfrequenz” value (Hypertonie [3]; 1 x 180 mg group) was 4-8 Schläge pro Minute, the “Senkung des systolischen Blutdrucks im Sitzen” value (Hypertonie [3]; 1 x 180 mg group) was 19-22 mmHg and the “Abnahme des diastolischen Blutdrucks” value (Hypertonie [3]; 1 x 180 mg group) was 13-16 mmHg. For the same compound, the “Response-Rate zum Zeitpunkt 8 Uhr” value (Hypertonie [3]; 1 x 180 mg group) was 87,5%, the “globale Response-Rate (Anteil der Patienten mit Response zu allen drei Meßzeitpunkten)” value (Hypertonie [3]; 1 x 180 mg group) was 85% and the “Senkung der Herzfrequenz” value (Hypertonie [3]; 2 x 90 mg group) was 4-8 Schläge pro Minute. For the same compound, the “Senkung des systolischen Blutdrucks im Sitzen” value (Hypertonie [3]; 2 x 90 mg group) was 15-18 mmHg, the “Abnahme des diastolischen Blutdrucks” value (Hypertonie [3]; 2 x 90 mg group) was 13-16 mmHg and the “Response-Rate zum Zeitpunkt 8 Uhr” value (Hypertonie [3]; 2 x 90 mg group) was 81%. The “globale Response-Rate (Anteil der Patienten mit Response zu allen drei Meßzeitpunkten)” value (Hypertonie [3]; 2 x 90 mg group) was 62%, the DBD sitzend (Hypertonie [3]; [8]) was 99.2 (3.9) mmHg and the DBD stehend (Hypertonie [3]; [8]) was 101.0 (4.8) mmHg. For the same compound, the HR sitzend (Hypertonie [3]; [8]) was 76.5 (9.2) 1/min, the SBD sitzend (Hypertonie [3]; [8]) was 158.9 (16.1) mmHg and the SBD stehend (Hypertonie [3]; [8]) was 158.4 (16.3) mmHg. For the same compound, the DBD sitzend (Hypertonie [3]; [9]) was 85.2 (8.8) mmHg, the DBD stehend (Hypertonie [3]; [9]) was 88.8 (8.9) mmHg and the HR sitzend (Hypertonie [3]; [9]) was 70.0 (7.2) 1/min. For the same compound, the HR stehend (Hypertonie [3]; [9]) was 78.6 (7.7) 1/min, the SBD sitzend (Hypertonie [3]; [9]) was 140.2 (14.2) mmHg and the SBD stehend (Hypertonie [3]; [9]) was 138.5 (14.8) mmHg. The DBD sitzend (Hypertonie [3]; [10]) was 99.9 (5.9) mmHg, the DBD stehend (Hypertonie [3]; [10]) was 102.5 (5.8) mmHg and the HR sitzend (Hypertonie [3]; [10]) was 77.0 (8.4) 1/min. The SBD stehend (Hypertonie [3]; [10]) was 156.7 (15.0) mmHg, the DBD sitzend (Hypertonie [3]; [11]) was 87.0 (10.7) mmHg and the DBD stehend (Hypertonie [3]; [11]) was 87.7 (9.2) mmHg. For the same compound, the HR sitzend (Hypertonie [3]; [11]) was 72.1 (8.1) 1/min, the HR stehend (Hypertonie [3]; [11]) was 79.6 (9.1) 1/min and the SBD stehend (Hypertonie [3]; [11]) was 138.6 (15.1) mmHg. For the same compound, the DBD sitzend (Hypertonie [3]; [12]) was 98.3 (3.9) mmHg, the DBD stehend (Hypertonie [3]; [12]) was 100.1 (7.1) mmHg and the HR sitzend (Hypertonie [3]; [12]) was 76.8 (9.4) 1/min. For the same compound, the HR stehend (Hypertonie [3]; [12]) was 87.2 (11.0) 1/min, the SBD sitzend (Hypertonie [3]; [12]) was 161.3 (16.2) mmHg and the SBD stehend (Hypertonie [3]; [12]) was 158.6 (16.4) mmHg. The DBD sitzend (Hypertonie [3]; [13]) was 85.3 (8.3) mmHg, the DBD stehend (Hypertonie [3]; [13]) was 87.3 (9.8) mmHg and the HR sitzend (Hypertonie [3]; [13]) was 73.7 (7.1) 1/min. The HR stehend (Hypertonie [3]; [13]) was 80.6 (7.4) 1/min, the SBD stehend (Hypertonie [3]; [13]) was 141.0 (14.8) mmHg and the DBD sitzend (Hypertonie [3]; [14]) was 99.8 (5.2) mmHg. The DBD stehend (Hypertonie [3]; [14]) was 102.0 (5.8) mmHg, the HR sitzend (Hypertonie [3]; [14]) was 76.4 (9.6) 1/min and the SBD stehend (Hypertonie [3]; [14]) was 155.5 (17.9) mmHg. The DBD sitzend (Hypertonie [3]; [15]) was 83.9 (10.7) mmHg, the DBD stehend (Hypertonie [3]; [15]) was 88.5 (9.7) mmHg and the HR sitzend (Hypertonie [3]; [15]) was 72.1 (8.2) 1/min. The HR stehend (Hypertonie [3]; [15]) was 79.0 (8.0) 1/min, the SBD stehend (Hypertonie [3]; [15]) was 137.4 (16.1) mmHg and the DBD sitzend (Hypertonie [3]; [16]) was 98.5 (3.9) mmHg. For the same compound, the DBD stehend (Hypertonie [3]; [16]) was 100.5 (5.8) mmHg, the HR sitzend (Hypertonie [3]; [16]) was 75.1 (9.2) 1/min and the HR stehend (Hypertonie [3]; [16]) was 84.4 (9.5) 1/min. The SBD sitzend (Hypertonie [3]; [16]) was 159.2 (18.2) mmHg, the SBD stehend (Hypertonie [3]; [16]) was 157.9 (19.6) mmHg and the DBD sitzend (Hypertonie [3]; [17]) was 83.3 (8.2) mmHg. For the same compound, the DBD stehend (Hypertonie [3]; [17]) was 87.1 (8.3) mmHg, the HR sitzend (Hypertonie [3]; [17]) was 71.1 (7.0) 1/min and the HR stehend (Hypertonie [3]; [17]) was 78.8 (6.9) 1/min. The SBD sitzend (Hypertonie [3]; [17]) was 137.6 (12.2) mmHg, the SBD stehend (Hypertonie [3]; [17]) was 137.1 (14.2) mmHg and the DBD sitzend (Hypertonie [3]; [18]) was 100.2 (5.4) mmHg. For the same compound, the DBD stehend (Hypertonie [3]; [18]) was 102.9 (5.6) mmHg, the HR sitzend (Hypertonie [3]; [18]) was 76.0 (9.1) 1/min and the HR stehend (Hypertonie [3]; [18]) was 83.6 (10.4) 1/min. For the same compound, the SBD sitzend (Hypertonie [3]; [18]) was 158.1 (16.5) mmHg, the SBD stehend (Hypertonie [3]; [18]) was 155.8 (17.7) mmHg and the DBD sitzend (Hypertonie [3]; [19]) was 85.4 (9.5) mmHg. The DBD stehend (Hypertonie [3]; [19]) was 87.3 (10.6) mmHg, the HR sitzend (Hypertonie [3]; [19]) was 71.3 (7.8) 1/min and the HR stehend (Hypertonie [3]; [19]) was 78.6 (8.6) 1/min. The SBD sitzend (Hypertonie [3]; [19]) was 140.1 (15.8) mmHg and the SBD stehend (Hypertonie [3]; [19]) was 135.7 (15.5) mmHg.
